Reference: patent US20050245399A1, “Pyrazole derivatives as herbicidal compositions containing them” (ISHIHARA SANGYO KAISHA, LTD., priority 2004, published 2005)

Key:
Type in all cases: in vivo
[1] = test system: corn (Zea mays L.): ZEAMX; assay: Test Example 1 pre-emergence herbicidal activity, ZEAMX; settings: visually observed 20th to 23rd day after application
From the text: (§1) Upland field soil was put into a 1/170,000 ha pot, and seeds of various plants {1. barnyardgrass (Echinochloa crus-galli L.): ECHCG, 2. crabgrass (Digitaria sanguinalis L.): DIGSA, 3. green foxtail (Setaria viridis L.): SETVI, 4. redroot pigweed (Amaranthus retroflexus L.): AMARE, 5. prickly sida (Sida spinosa L.): SEDSP, 6. velvetleaf (Abutilon theophrasti): ABUTH, 7. common cocklebur (Xanthium strumarium L.): XANST, 8. rice (Oryza sativa L.): ORYSA, 9. wheat (Triticum aestivum L.): TRZAX, 10. corn (Zea mays L.): ZEAMX, 11. soybean (Glycine max Merr.): GLXMA} were sown. Then, one day after the sowing, a wettable powder or emulsifiable concentrate having the compound of the present invention formulated in accordance with a usual formulation method, was weighed so that the active ingredient would be a predetermined amount and diluted with water in an amount of 500 L/ha. The herbicide adjusted was applied by a small size sprayer for preemergence treatment. On the 20th to 23rd day after the application of the herbicide, the growth of the respective plants was visually observed, and the herbicidal effects were evaluated by growth controlling degrees (%) ranging from 0 (equivalent to the untreated control) to 100 (complete kill), whereby the results shown in Table 4, were obtained. Compound Nos. in Table 4 correspond to Compound Nos. in Table 1 and 2 given hereinbefore.

[2] = test system: soybean (Glycine max Merr.): GLXMA; assay: Test Example 1 pre-emergence herbicidal activity, GLXMA; settings: visually observed 20th to 23rd day after application
From the text: as §1

[3] = test system: redroot pigweed (Amaranthus retroflexus L.), AMARE; assay: Test Example 2 post-emergence (foliage treatment) herbicidal activity, AMARE; settings: 63 g a.i./ha
From the text: (§2) Upland field soil was put into a 1/170,000 ha pot, and seeds of various plants were sown. Then, when the plants reached predetermined leaf stages {1. barnyardgrass (Echinochloa crus-galli L.), ECHCG: 1.1-2.1 leaf stage, 2. crabgrass (Digitaria sanguinalis L.), DIGSA: 1.0-2.0 leaf stage, 3. green foxtail (Setaria viridis L.), SETVI: 1.0-2.2 leaf stage, 4. redroot pigweed (Amaranthus retroflexus L.), AMARE: 0.1-1.5 leaf stage, 5. prickly sida (Sida spinosa L.), SIDSP: 0.1-0.6 leaf stage, 6. velvetleaf (Abutilon theophrasti), ABUTH: 0.1-0.6 leaf stage, 7. common cocklebur (Xanthium strumarium L.), XANST: 0.1 leaf stage, 8. rice (Oryza sativa L.), ORYSA; 1.0-2 leaf stage, 9. wheat (Triticum aestivum L.), TRZAX: 2.3-3.5 leaf stage, 10. corn (Zea mays L.), ZEAMXN 2.1-2.6 leaf stage, 11. soybean (Glycine max Merr.), GLXMA: primary leaf stage}, a wettable powder or emulsifiable concentrate having the compound of the present invention formulated in accordance with a usual formulation method, was weighed so that the active ingredient would be a predetermined amount, and diluted with water in an amount of 500 L/ha. To the diluted solution, 0.1% (v/v) of an agricultural spreader was added. The herbicide adjusted was applied by a small size sprayer for foliage treatment. On the 20th to 23rd day after the application of the herbicide, the growth of the respective plants was visually observed, and the herbicidal effects were evaluated by growth controlling degrees (%) ranging from 0 (equivalent to the untreated control) to 100 (complete kill), whereby the results shown in Table 5, were obtained. Compound Nos. in Table 5 correspond to Compound Nos. in Table 1 and 2 given hereinbefore.

[4] = test system: green foxtail (Setaria viridis L.), SETVI; assay: Test Example 2 post-emergence (foliage treatment) herbicidal activity, SETVI; settings: 63 g a.i./ha
From the text: as §2

[5] = test system: soybean (Glycine max Merr.), GLXMA; assay: Test Example 2 post-emergence (foliage treatment) herbicidal activity, GLXMA; settings: 63 g a.i./ha
From the text: as §2

[6] = test system: rice (Oryza sativa L.): ORYSA; assay: Test Example 1 pre-emergence herbicidal activity, ORYSA; settings: visually observed 20th to 23rd day after application
From the text: as §1

[7] = test system: green foxtail (Setaria viridis L.): SETVI; assay: Test Example 1 pre-emergence herbicidal activity, SETVI; settings: visually observed 20th to 23rd day after application
From the text: as §1

[8] = test system: crabgrass (Digitaria sanguinalis L.): DIGSA; assay: Test Example 1 pre-emergence herbicidal activity, DIGSA; settings: visually observed 20th to 23rd day after application
From the text: as §1

[9] = test system: crabgrass (Digitaria sanguinalis L.), DIGSA; assay: Test Example 2 post-emergence (foliage treatment) herbicidal activity, DIGSA; settings: 63 g a.i./ha
From the text: as §2

[10] = test system: rice (Oryza sativa L.), ORYSA; assay: Test Example 2 post-emergence (foliage treatment) herbicidal activity, ORYSA; settings: 63 g a.i./ha
From the text: as §2

[11] = test system: barnyardgrass (Echinochloa crus-galli L.), ECHCG; assay: Test Example 2 post-emergence (foliage treatment) herbicidal activity, ECHCG; settings: 63 g a.i./ha
From the text: as §2

[12] = test system: corn (Zea mays L.), ZEAMX; assay: Test Example 2 post-emergence (foliage treatment) herbicidal activity, ZEAMX; settings: 63 g a.i./ha
From the text: as §2

[13] = test system: velvetleaf (Abutilon theophrasti): ABUTH; assay: Test Example 1 pre-emergence herbicidal activity, ABUTH; settings: visually observed 20th to 23rd day after application
From the text: as §1

[14] = test system: velvetleaf (Abutilon theophrasti), ABUTH; assay: Test Example 2 post-emergence (foliage treatment) herbicidal activity, ABUTH; settings: 63 g a.i./ha
From the text: as §2

[15] = test system: prickly sida (Sida spinosa L.): SEDSP; assay: Test Example 1 pre-emergence herbicidal activity, SIDSP; settings: visually observed 20th to 23rd day after application
From the text: as §1

[16] = test system: wheat (Triticum aestivum L.), TRZAX; assay: Test Example 2 post-emergence (foliage treatment) herbicidal activity, TRZAX; settings: 63 g a.i./ha
From the text: as §2

[17] = test system: wheat (Triticum aestivum L.): TRZAX; assay: Test Example 1 pre-emergence herbicidal activity, TRZAX; settings: visually observed 20th to 23rd day after application
From the text: as §1

[18] = test system: barnyardgrass (Echinochloa crus-galli L.): ECHCG; assay: Test Example 1 pre-emergence herbicidal activity, ECHCG; settings: visually observed 20th to 23rd day after application
From the text: as §1

[19] = test system: redroot pigweed (Amaranthus retroflexus L.): AMARE; assay: Test Example 1 pre-emergence herbicidal activity, AMARE; settings: Rate 63 g a.i./ha, visually observed 20th to 23rd day after application
From the text: as §1

[20] = test system: prickly sida (Sida spinosa L.), SIDSP; assay: Test Example 2 post-emergence (foliage treatment) herbicidal activity, SIDSP; settings: 63 g a.i./ha
From the text: as §2

Compound	growth controlling degree, AMARE [3]	growth controlling degree, SETVI [4]	growth controlling degree, GLXMA [5]	growth controlling degree, DIGSP [9]	growth controlling degree, ORYSA [10]	growth controlling degree, ECHCO [11]	growth controlling degree, ZEAMX [12]	growth controlling degree, ABUTH [14]	growth controlling degree, TRZAX [16]	Pre-emergence Herbicidal Activity ZEAMX (growth controlling degree) ([1]; Rate 63 g a.i./ha)	Pre-emergence Herbicidal Activity GLXMA (growth controlling degree) ([2]; Rate 63 g a.i./ha)	Pre-emergence Herbicidal Activity ORYSA (growth controlling degree) ([6]; Rate 63 g a.i./ha)	Pre-emergence Herbicidal Activity AMARE (growth controlling degree) [19]	Pre-emergence Herbicidal Activity SETVI (growth controlling degree) ([7]; Rate 63 g a.i./ha)	Pre-emergence Herbicidal Activity DIGSP (growth controlling degree) ([8]; Rate 63 g a.i./ha)	Pre-emergence Herbicidal Activity ABUTH (growth controlling degree) ([13]; Rate 63 g a.i./ha)	Pre-emergence Herbicidal Activity SIDSP (growth controlling degree) ([15]; Rate 63 g a.i./ha)	Pre-emergence Herbicidal Activity TRZAX (growth controlling degree) ([17]; Rate 63 g a.i./ha)	Pre-emergence Herbicidal Activity ECHCG (growth controlling degree) ([18]; Rate 63 g a.i./ha)	growth controlling degree, SIDSP [20]	also measured
COc1c(Cl)cc(F)c(-c2nn(C)c(OC(F)F)c2Cl)c1N(C=O)CCOc1ccccc1 [Compound 1-43]	100%	70%	40%	20%	30%	40%	10%	100%	10%	–	–	–	–	–	–	–	–	–	–	–	Pre-emergence Herbicidal Activity ZEAMX (growth controlling degree) ([1]; Rate 125 g a.i./ha): 0%; Pre-emergence Herbicidal Activity GLXMA (growth controlling degree) ([2]; Rate 125 g a.i./ha): 0%; Pre-emergence Herbicidal Activity ORYSA (growth controlling degree) ([6]; Rate 125 g a.i./ha): 10%; Pre-emergence Herbicidal Activity SETVI (growth controlling degree) ([7]; Rate 125 g a.i./ha): 0%; Pre-emergence Herbicidal Activity DIGSP (growth controlling degree) ([8]; Rate 125 g a.i./ha): 10%; Pre-emergence Herbicidal Activity ABUTH (growth controlling degree) ([13]; Rate 125 g a.i./ha): 0%; Pre-emergence Herbicidal Activity SIDSP (growth controlling degree) ([15]; Rate 125 g a.i./ha): 0%; Pre-emergence Herbicidal Activity TRZAX (growth controlling degree) ([17]; Rate 125 g a.i./ha): 0%; Pre-emergence Herbicidal Activity ECHCG (growth controlling degree) ([18]; Rate 125 g a.i./ha): 0%
COc1c(Cl)cc(F)c(-c2nn(C)c(OC(F)F)c2Cl)c1NC(=O)C(C)(C)OC(C)=O [Compound 1-44]	100%	80%	40%	60%	50%	50%	10%	100%	20%	0%	0%	10%	100%	20%	100%	60%	100%	10%	10%	–	–
COc1c(Cl)cc(F)c(-c2nn(C)c(OC(F)F)c2Cl)c1NC(=O)COCc1ccccc1 [Compound 1-45]	100%	90%	60%	70%	80%	95%	40%	100%	40%	0%	0%	30%	100%	40%	90%	30%	0%	10%	0%	–	–
COc1c(Cl)cc(F)c(-c2nn(C)c(OC(F)F)c2Cl)c1NC(=O)c1ccc(C)cc1 [Compound 1-261]	–	100%	70%	95%	70%	100%	40%	100%	30%	0%	0%	40%	100%	98%	100%	80%	100%	10%	80%	100%	–
COc1c(Cl)cc(F)c(-c2nn(C)c(OC(F)F)c2Cl)c1NC(=O)CC(C)(C)C [Compound 1-265]	–	80%	50%	60%	40%	60%	30%	95%	30%	0%	0%	10%	100%	70%	100%	100%	100%	20%	20%	100%	–
